Measured values as given in US20240158348A1, “HERBICIDAL CYCLIC AMIDES N-SUBSTITUTED WITH A HALOALKYLSULFONYLANILIDE GROUP” (FMC Corporation, priority 2021, published 2024).

What was measured:
Type in all cases: in vivo
[1] = tested on: barnyardgrass (Echinochloa crusgalli); assay: Test D flooded paddy test, barnyardgrass; design: key: 0 = no effect, 100 = complete control; details: 250 g ai/ha, Flood; applied to paddy water at 2-leaf stage; visual rating after 13 days; scale 0 (no effect) to 100 (complete control)
Summary of the method: (§1)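 Under 3 cm of standing water, kept constant after treatment, 2-leaf plants received compound via the paddy water. Ratings on a 0–100 control scale were assigned visually after 13 greenhouse days; a dash denotes no test result.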

[2] = tested on: horseweed (Erigeron canadensis); assay: Test C postemergence, horseweed; details: for Horseweed plant response rating: visual injury, 0 to 100 scale (0 no effect, 100 complete control); for Plant response rating (0 to 100 scale), Horseweed: 0 is no effect, 100 is complete control
Summary of the method: (§2)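 Plants grown in a sand and loam soil blend received the formulated test chemicals either as a preemergence soil-directed spray or postemergence at 2 to 10 cm height. After 10 or 12 greenhouse days, injury was assessed visually, with 100 meaning complete control.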

[3] = tested on: ryegrass, Italian (Italian ryegrass, Lolium multiflorum); assay: Test C preemergence, Italian ryegrass; details: 0 is no effect, 100 is complete control
Summary of the method: as §2

[4] = tested on: galium (catchweed bedstraw, Galium aparine); assay: Test C postemergence, galium; details: for Galium plant response rating: visual injury, 0 to 100 scale (0 no effect, 100 complete control); for Plant response rating (0 to 100 scale), Galium: 0 is no effect, 100 is complete control
[5] = tested on: ragweed (common ragweed, Ambrosia artemisiifolia); assay: Test C preemergence, ragweed; details: 0 is no effect, 100 is complete control
Summary of the method: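 Ratings run from 0, meaning no effect, up to 100, meaning complete control, judged by eye against untreated plants. Treatment was a directed soil spray before emergence or a postemergence spray on 2–10 cm seedlings, with evaluation 10 or 12 days later.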

[6] = tested on: ryegrass, Italian (Italian ryegrass, Lolium multiflorum); assay: Test C postemergence, Italian ryegrass; details: for Ryegrass, Italian plant response rating: visual injury, 0 to 100 scale (0 no effect, 100 complete control); for Plant response rating (0 to 100 scale), Ryegrass, Italian: 0 is no effect, 100 is complete control
Summary of the method: as §2

[7] = tested on: sedge, umbrella (small-flower umbrella sedge, Cyperus difformis); assay: Test D flooded paddy test, umbrella sedge; design: key: 0 = no effect, 100 = complete control; details: 250 g ai/ha, Flood; applied to paddy water at 2-leaf stage; visual rating after 13 days; scale 0 (no effect) to 100 (complete control)
Summary of the method: as §1

[8] = tested on: wheat (Triticum aestivum); assay: Test C postemergence, wheat; details: for Wheat plant response rating: visual injury, 0 to 100 scale (0 no effect, 100 complete control); for Plant response rating (0 to 100 scale), Wheat: 0 is no effect, 100 is complete control
Summary of the method: as §2

| SMILES | Plant response rating, Barnyardgrass [1] | Horseweed plant response rating ([2]; 31 g ai/ha Postemergence) | Plant response rating (0 to 100 scale), Horseweed ([2]; 125 g ai/ha Postemergence) | Plant response rating (0 to 100 scale), Ryegrass, Italian ([3]; 31 g ai/ha Preemergence) | Plant response rating (0 to 100 scale), Ryegrass, Italian ([3]; 125 g ai/ha Preemergence) | Galium plant response rating ([4]; 31 g ai/ha Postemergence) | Plant response rating (0 to 100 scale), Galium ([4]; 125 g ai/ha Postemergence) | Plant response rating (0 to 100 scale), Ragweed ([5]; 31 g ai/ha Preemergence) | Plant response rating (0 to 100 scale), Ragweed ([5]; 125 g ai/ha Preemergence) | Ryegrass, Italian plant response rating ([6]; 31 g ai/ha Postemergence) | Ryegrass, Italian plant response rating ([6]; 125 g ai/ha Postemergence) | Plant response rating, Sedge, Umbrella [7] | Wheat plant response rating ([8]; 31 g ai/ha Postemergence) | Wheat plant response rating ([8]; 125 g ai/ha Postemergence) | Horseweed plant response rating ([2]; 125 g ai/ha Postemergence) | Galium plant response rating ([4]; 125 g ai/ha Postemergence) | Plant response rating (0 to 100 scale), Ryegrass, Italian ([6]; 125 g ai/ha Postemergence) | Plant response rating (0 to 100 scale), Wheat ([8]; 125 g ai/ha Postemergence) |
| --- | --- | --- | --- | --- | --- | --- | --- | --- | --- | --- | --- | --- | --- | --- | --- | --- | --- | --- |
| Cc1c(NS(=O)(=O)C(F)(F)F)cc(N2CCCC(OC3CC3)C2=O)c(C)c1F (stereo not drawn) [Compound 35] | 0 | 90 | 100 | 100 | 100 | 70 | 100 | 50 | 90 | 50 | 60 | 95 | 60 | 60 | – | – | – | – |
| Cc1c(NS(=O)(=O)C(F)(F)F)cc(N2CCC(OC3CC3)C2=O)c(C)c1C (stereo not drawn) [Compound 47] | 75 | – | – | 50 | 90 | 80 | – | 70 | 100 | 50 | 90 | 95 | 80 | 80 | 100 | 90 | – | – |
| C=CCO/N=C1\CCN(c2cc(NS(=O)(=O)C(F)(F)F)c(C)cc2C)C1=O [Compound 11] | 25 | 20 | 70 | 40 | 90 | 80 | 100 | 80 | 90 | 0 | – | 100 | 80 | – | – | – | 30 | 90 |
| Cc1cc(C)c(N2CCC(OCC3CC3)C2=O)cc1NS(=O)(=O)C(F)(F)F (stereo not drawn) [Compound 22] | 90 | 90 | 90 | 100 | 100 | 100 | 100 | 50 | 100 | 70 | – | 95 | 50 | – | – | – | 80 | 60 |
| C#CCO/N=C1\CCN(c2cc(NS(=O)(=O)C(F)(F)F)c(C)cc2C)C1=O [Compound 13, N-[2,4-dimethyl-5-[2-oxo-3-[(2-propyn-1-yloxy)imino]-1-pyrrolidinyl]phenyl]-1,1,1-trifluoromethanesulfonamide] | 10 | 70 | 90 | 40 | 100 | 100 | 100 | 50 | 100 | 60 | – | 100 | 90 | – | – | – | 60 | 90 |
| Cc1cc(C)c(N2CC/C(=N\O)C2=O)cc1NS(=O)(=O)C(F)(F)F [Compound 10, 1,1,1-trifluoro-N-[5-[3-(hydroxyimino)-2-oxo-1-pyrrolidinyl]-2,4-dimethylphenyl]methanesulfonamide] | 0 | 80 | 90 | 50 | 100 | 100 | 100 | 0 | 30 | 80 | – | 80 | 80 | – | – | – | 80 | 80 |
| Cc1c(NS(=O)(=O)C(F)(F)F)cc(N2CCC(OCC3CCC3)C2=O)c(C)c1F (stereo not drawn) [Compound 64] | 25 | 10 | – | 50 | 90 | 100 | – | 90 | 100 | 0 | 20 | 95 | 0 | 20 | 60 | 100 | – | – |
| Cc1cc(C)c(N2CCC(OCC3CCC3(F)F)C2=O)cc1NS(=O)(=O)C(F)(F)F (stereo not drawn) [Compound 52] | 20 | 80 | – | 0 | 80 | 70 | – | 0 | 30 | 40 | 100 | 80 | 20 | 70 | 90 | 100 | – | – |
